Columns and labels:
SARS-CoV-2 3CL-protease = SARS-CoV-2 3CL-protease (Severe acute respiratory syndrome coronavirus 2 (2019-nCoV) (SARS-CoV-2), UniProt P0DTD1); test: SARS-CoV-2 3C-like (3CL) protease fluorescence assay (FRET); assay type: biochemical; conditions: read-out: FRET IC50
[1] = system: 229E human corona virus (hCoV); test: 229E live virus assay; assay type: cell-based, hCoV-229E; conditions: Human coronavirus 229E, MRC5, 144 h, read-out: 229E EC50

Row | SMILES | IC50 (SARS-CoV-2 3CL-protease) [nM] | EC50 [1] [nM]
1 | CN(C(=O)c1cc2c(F)cc(F)cc2[nH]1)[C@@H](CC(C)(C)C)C(=O)N1C[C@]2(C[C@H]1C#N)C(=O)Nc1ccccc12 [Compound 88] | < 100 | –
2 | CN(C(=O)OCc1ccccc1)[C@@H](CC1CCC1)C(=O)N1C[C@]2(C[C@H]1C#N)C(=O)Nc1ccccc12 [Compound 89] | < 100 | –
3 | CCN(C(=O)OCc1ccccc1)[C@@H](CC(C)C)C(=O)N1C[C@]2(C[C@H]1C#N)C(=O)Nc1ccccc12 [Compound 90] | < 100 | –
4 | CN(C(=O)c1cc2c(F)cc(F)cc2[nH]1)[C@@H](CC1CCC1)C(=O)N1C[C@]2(C[C@H]1C#N)C(=O)Nc1ccccc12 [Compound 91] | < 100 | –
5 | COc1cccc2[nH]c(C(=O)N(C)[C@@H](CC3CCC3)C(=O)N3C[C@]4(C[C@H]3C#N)C(=O)Nc3ccccc34)cc12 [Compound 92] | < 100 | –
6 | CN(C(=O)c1cc2c(F)cccc2[nH]1)[C@@H](CC1CCC1)C(=O)N1C[C@]2(C[C@H]1C#N)C(=O)Nc1ccccc12 [Compound 93] | < 100 | –
7 | CN(C(=O)c1cc2c(OC3CC3)cccc2[nH]1)[C@@H](CC1CCC1)C(=O)N1C[C@]2(C[C@H]1C#N)C(=O)Nc1ccccc12 [Compound 94] | < 100 | –
8 | CCN(C(=O)c1cc2c(F)cccc2[nH]1)[C@@H](CC(C)C)C(=O)N1C[C@]2(C[C@H]1C#N)C(=O)Nc1ccccc12 [Compound 95] | < 100 | –
9 | C=CCN(C(=O)OCc1ccccc1)[C@@H](CC(C)C)C(=O)N1C[C@]2(C[C@H]1C#N)C(=O)Nc1ccccc12 [Compound 96] | < 100 | –
10 | CCCN(C(=O)OCc1ccccc1)[C@@H](CC(C)C)C(=O)N1C[C@]2(C[C@H]1C#N)C(=O)Nc1ccccc12 [Compound 97] | < 100 | –
11 | CCCN(C(=O)c1cc2c(F)cccc2[nH]1)[C@@H](CC(C)C)C(=O)N1C[C@]2(C[C@H]1C#N)C(=O)Nc1ccccc12 [Compound 98] | < 100 | –
12 | CCCN(C(=O)c1cc2c(F)cc(F)cc2[nH]1)[C@@H](CC(C)C)C(=O)N1C[C@]2(C[C@H]1C#N)C(=O)Nc1ccccc12 [Compound 99] | < 100 | –
13 | CC(C)CC[C@@H](C(=O)N1C[C@]2(C[C@H]1C#N)C(=O)Nc1ccccc12)N(C)C(=O)OCc1ccccc1 [Compound 100] | < 100 | –
14 | CN(C(=O)OCc1ccccc1)[C@@H](CC(C)(C)F)C(=O)N1C[C@]2(C[C@H]1C#N)C(=O)Nc1ccccc12 [Compound 101] | < 100 | –
15 | CN(C(=O)OCc1ccccc1)[C@@H](CC1CC1)C(=O)N1C[C@]2(C[C@H]1C#N)C(=O)Nc1ccccc12 [Compound 102] | < 100 | –
16 | CC(C)CC[C@@H](C(=O)N1C[C@]2(C[C@H]1C#N)C(=O)Nc1ccccc12)N(C)C(=O)c1cc2c(F)cc(F)cc2[nH]1 [Compound 104] | < 100 | –
17 | COc1cccc2[nH]c(C(=O)N(C)[C@@H](CCC(C)C)C(=O)N3C[C@]4(C[C@H]3C#N)C(=O)Nc3ccccc34)cc12 [Compound 105] | < 100 | –

Row | SMILES | IC50 (SARS-CoV-2 3CL-protease) [nM] | EC50 [1] [nM]
18 | COc1cccc2[nH]c(C(=O)N(C)[C@@H](CC3CCCC3)C(=O)N3C[C@]4(C[C@H]3C#N)C(=O)Nc3ccccc34)cc12 [Compound 106] | < 100 | –
19 | CN(C(=O)c1cc2c(F)cc(F)cc2[nH]1)[C@@H](CC1CCCC1)C(=O)N1C[C@]2(C[C@H]1C#N)C(=O)Nc1ccccc12 [Compound 107] | < 100 | –
20 | CN(C(=O)c1cc2c(OC(F)(F)F)cccc2[nH]1)[C@@H](CC1CCCC1)C(=O)N1C[C@]2(C[C@H]1C#N)C(=O)Nc1ccccc12 [Compound 108] | < 100 | –
21 | CN(C(=O)c1cc2c(F)cc(F)c(F)c2[nH]1)[C@@H](CC1CCCC1)C(=O)N1C[C@]2(C[C@H]1C#N)C(=O)Nc1ccccc12 [Compound 109] | < 100 | –
22 | CN(C(=O)c1cc2c(F)cccc2[nH]1)[C@@H](CC1CCCCC1)C(=O)N1C[C@]2(C[C@H]1C#N)C(=O)Nc1ccccc12 [Compound 110] | < 100 | –
23 | CN(C(=O)c1cc2c(F)cc(F)cc2[nH]1)[C@@H](CC1CCCCC1)C(=O)N1C[C@]2(C[C@H]1C#N)C(=O)Nc1ccccc12 [Compound 111] | < 100 | –
24 | CN(C(=O)c1cc2c(F)c(F)ccc2[nH]1)[C@@H](CC1CCCCC1)C(=O)N1C[C@]2(C[C@H]1C#N)C(=O)Nc1ccccc12 [Compound 112] | < 100 | –
25 | COc1cccc2[nH]c(C(=O)N(C)[C@@H](CC3CCCCC3)C(=O)N3C[C@]4(C[C@H]3C#N)C(=O)Nc3ccccc34)cc12 [Compound 113] | < 100 | –
26 | COc1cccc2[nH]c(C(=O)N(C)[C@@H](CC3CC3)C(=O)N3C[C@]4(C[C@H]3C#N)C(=O)Nc3ccccc34)cc12 [Compound 114] | < 100 | –
27 | CN(C(=O)c1cc2c(F)cc(F)cc2[nH]1)[C@@H](CC1CC1)C(=O)N1C[C@]2(C[C@H]1C#N)C(=O)Nc1ccccc12 [Compound 115] | < 100 | –
28 | CN(C(=O)c1cc2c(F)cccc2[nH]1)[C@@H](CC1CC1)C(=O)N1C[C@]2(C[C@H]1C#N)C(=O)Nc1ccccc12 [Compound 116] | < 100 | –
29 | COc1cccc2[nH]c(C(=O)N[C@@H](CC(C)C)C(=O)N3C[C@]4(C[C@H]3C=O)C(=O)N(C)c3ccccc34)cc12 [Compound 119] | < 100 | –
30 | COc1cccc2[nH]c(C(=O)N[C@@H](CC(C)C)C(=O)N3C[C@]4(C[C@H]3C#N)C(=O)N(C)c3ccccc34)cc12 [Compound 120] | 100 to 1000 | –
31 | COc1cccc2[nH]c(C(=O)N(C)[C@@H](CC(C)C)C(=O)N3C[C@]4(C[C@H]3C#N)C(=O)N(C)c3ccccc34)cc12 [Compound 121] | < 100 | –
32 | CC(C)C[C@H](NC(=O)NCc1ccccc1)C(=O)N1C[C@]2(C[C@H]1C#N)C(=O)Nc1ccccc12 [Compound 122] | < 100 | –
33 | CN(C(=O)c1cnn(-c2ccccc2C(F)(F)F)c1)[C@@H](CC1CC1)C(=O)N1C[C@]2(C[C@H]1C#N)C(=O)Nc1ccccc12 [Compound 124] | < 100 | –
34 | [2H]C([2H])([2H])N(C(=O)c1cnn(C(C)(C)C)c1)[C@@H](CC1CC1)C(=O)N1C[C@]2(C[C@H]1C#N)C(=O)Nc1ccccc12 [Compound 125] | – | < 100
